Laboratory results from ChEMBL document CHEMBL5512651, “Synthesis and biological evaluation of 4-imidazolidinone-containing compounds as potent inhibitors of the MDM2/p53 interaction” (Eur J Med Chem, 2024).
pIC50, pKi: −log10 of the molar value. Calls of active or inactive are those of the source. The calls are words filed in the database; no cut-off is given here.

Legend:
[1] = target: Tumour suppressor p53/oncoprotein Mdm2 (Homo sapiens, UniProt Q00987); experiment: Inhibition of MDM2/p53 (unknown origin) interaction by fluorescence polarization assay; format: protein assay
[2] = target: Tumour suppressor protein p53/Mdm4 (Homo sapiens, UniProt O15151); experiment: Inhibition of MDM4/p53 (unknown origin) interaction by fluorescence polarization assay; format: protein assay
[3] = system: HCT-116; experiment: cells; settings: Homo sapiens, HCT-116, 96 h
[4] = system: MOLM-13; experiment: cells; settings: Homo sapiens, MOLM-13, 48 h
[5] = target: Cellular tumor antigen p53 (Homo sapiens) (UniProt P04637); experiment: Activation of p53 pathway in human MOLM-13 cells assessed as increase in p53 level incubated for 24 hrs by Western blot analysis; format: cell-based; settings: filed as activator, dose 0.038-0.6 µM
[6] = target: Cellular tumor antigen p53 (Homo sapiens) (UniProt P04637); experiment: Activation of p53 pathway in human MOLM-13 cells assessed as increase in p21 level incubated for 24 hrs by Western blot analysis; format: cell-based; settings: filed as activator, dose 0.038-0.6 µM
[7] = target: Cellular tumor antigen p53 (Homo sapiens) (UniProt P04637); experiment: Activation of p53 pathway in human MOLM-13 cells assessed as increase in MDM2 level incubated for 24 hrs by Western blot analysis; format: cell-based; settings: filed as activator, dose 0.038-0.6 µM
[8] = system: MOLM-13; experiment: Induction of apoptosis in human MOLM-13 cells assessed as increase in PARP cleavage at 0.15 to 0.6 uM incubated for 24 hrs by Western blot analysis; format: functional, cell-based; settings: dose 0.15-0.6 µM
[9] = system: MOLM-13; experiment: Induction of apoptosis in human MOLM-13 cells assessed as increase in caspase-3 level at 0.15 to 0.6 uM incubated for 24 hrs by Western blot analysis; format: functional, cell-based; settings: dose 0.15-0.6 µM
[10] = target: Cellular tumor antigen p53 (Homo sapiens) (UniProt P04637); experiment: Activation of p53 pathway in human MOLM-13 cells assessed as increase in MDM2 mRNA level incubated for 24 hrs by qPCR analysis; format: cell-based; settings: filed as activator, dose 0.038-0.6 µM
[11] = target: Cellular tumor antigen p53 (Homo sapiens) (UniProt P04637); experiment: Activation of p53 pathway in human MOLM-13 cells assessed as increase in p21 mRNA level incubated for 24 hrs by qPCR analysis; format: cell-based; settings: filed as activator, dose 0.038-0.6 µM
[12] = target: Cellular tumor antigen p53 (Homo sapiens) (UniProt P04637); experiment: Activation of p53 pathway in human MOLM-13 cells assessed as increase in PUMA mRNA level incubated for 24 hrs by qPCR analysis; format: cell-based; settings: filed as activator, dose 0.038-0.6 µM
[13] = target: Cellular tumor antigen p53 (Homo sapiens) (UniProt P04637); experiment: Activation of p53 pathway in human MOLM-13 cells assessed as increase in BAX mRNA level incubated for 24 hrs by qPCR analysis; format: cell-based; settings: filed as activator, dose 0.038-0.6 µM
[14] = Antiproliferative activity against HEK293 cells incubated for 4 days by CCK8 assay; format: toxicity, cell-based; settings: human
[15] = Selectivity index, ratio of IC50 for HEK293 cells to IC50 for human A549 cells; format: toxicity; settings: HEK293 cells versus A549 cells, read-out: Ratio IC50
[16] = Selectivity index, ratio of IC50 for HEK293 cells to IC50 for human HeLa cells; format: toxicity; settings: HEK293 cells versus HeLa cells, read-out: Ratio IC50
[17] = Selectivity index, ratio of IC50 for HEK293 cells to IC50 for human SW480 cells
[18] = system: A549; experiment: cells; settings: Homo sapiens, A549, 96 h
[19] = system: HeLa; experiment: cells; settings: Homo sapiens, 96 h
[20] = system: SW480; experiment: cells; settings: Homo sapiens, SW480, 96 h

Tumour suppressor protein p53/Mdm4, sequence (P04637 whole entry): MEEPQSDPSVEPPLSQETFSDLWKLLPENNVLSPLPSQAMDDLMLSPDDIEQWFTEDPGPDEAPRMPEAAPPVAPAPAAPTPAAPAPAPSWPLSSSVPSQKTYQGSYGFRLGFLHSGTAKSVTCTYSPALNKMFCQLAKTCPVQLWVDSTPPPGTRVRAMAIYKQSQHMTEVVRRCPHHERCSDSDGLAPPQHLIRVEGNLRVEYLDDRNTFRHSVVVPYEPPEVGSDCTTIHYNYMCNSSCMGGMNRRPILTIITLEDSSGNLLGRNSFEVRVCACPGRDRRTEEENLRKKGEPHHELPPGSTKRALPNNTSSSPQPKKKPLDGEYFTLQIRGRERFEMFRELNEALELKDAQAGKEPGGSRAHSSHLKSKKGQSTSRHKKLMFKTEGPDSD
Tumour suppressor protein p53/Mdm4, sequence (O15151 whole entry): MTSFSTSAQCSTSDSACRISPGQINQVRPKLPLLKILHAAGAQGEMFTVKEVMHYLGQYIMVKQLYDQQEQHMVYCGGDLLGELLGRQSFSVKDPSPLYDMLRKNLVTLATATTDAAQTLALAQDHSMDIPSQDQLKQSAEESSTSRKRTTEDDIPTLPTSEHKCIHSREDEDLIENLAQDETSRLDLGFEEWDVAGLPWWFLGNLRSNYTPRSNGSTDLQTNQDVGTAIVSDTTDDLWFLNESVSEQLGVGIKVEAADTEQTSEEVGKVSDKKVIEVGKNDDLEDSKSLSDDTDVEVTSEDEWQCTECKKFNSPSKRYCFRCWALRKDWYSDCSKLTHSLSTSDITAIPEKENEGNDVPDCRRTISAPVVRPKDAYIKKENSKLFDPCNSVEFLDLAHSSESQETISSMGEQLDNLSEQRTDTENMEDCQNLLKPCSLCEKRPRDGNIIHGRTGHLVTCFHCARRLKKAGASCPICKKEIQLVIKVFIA
Tumour suppressor p53/oncoprotein Mdm2, sequence (P04637 whole entry): as the sequence (P04637 whole entry) above
Tumour suppressor p53/oncoprotein Mdm2, sequence (Q00987 whole entry): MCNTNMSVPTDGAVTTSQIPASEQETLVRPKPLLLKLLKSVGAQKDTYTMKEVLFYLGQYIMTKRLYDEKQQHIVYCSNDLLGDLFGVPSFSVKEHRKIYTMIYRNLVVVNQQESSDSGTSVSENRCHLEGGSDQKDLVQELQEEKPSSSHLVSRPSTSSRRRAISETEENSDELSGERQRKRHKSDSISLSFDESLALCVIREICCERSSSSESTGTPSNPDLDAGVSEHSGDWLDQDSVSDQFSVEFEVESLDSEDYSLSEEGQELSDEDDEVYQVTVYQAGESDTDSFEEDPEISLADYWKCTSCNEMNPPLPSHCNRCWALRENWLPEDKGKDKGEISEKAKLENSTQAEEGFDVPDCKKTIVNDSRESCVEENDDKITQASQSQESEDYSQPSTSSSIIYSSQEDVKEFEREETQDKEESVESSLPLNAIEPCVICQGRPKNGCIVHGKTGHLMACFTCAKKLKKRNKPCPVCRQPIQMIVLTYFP
Cellular tumor antigen p53 (Homo sapiens), sequence (P04637 whole entry, looked up): as the sequence (P04637 whole entry) above

Row | Structure (SMILES) | pKi [1] | pKi [2] | pIC50 [3] | pIC50 [4] | other results
1 | COc1cc(C(=O)O)ccc1N1CN2[C@@H](CC(C)(C)C)[C@@]3(CNc4ccc(Cl)cc43)[C@@H](c3cccc(Cl)c3)[C@@H]2C1=O | 7.17 | < 4.57 | 5.06 | 5.59 | 
2 | COc1cc(C(=O)O)ccc1N1CN2[C@@H](CC(C)(C)C)[C@@]3(CNc4cc(Cl)ccc43)[C@@H](c3cccc(C)c3)[C@@H]2C1=O | 8.28 | 5.66 | 6.07 | 6.53 | 
3 | CCC(C)(C)C[C@@H]1N2CN(c3ccc(C(=O)O)cc3OC)C(=O)[C@H]2[C@H](c2cccc(Cl)c2)[C@]12CNc1cc(Cl)ccc12 | 9.00 | 5.95 | 7.55 | 8.26 | Activity [5]: Dose-Dependent Effect; Activity [6]: Dose-Dependent Effect; Activity [7]: Dose-Dependent Effect; Activity [8]: Active; Activity [9]: Active; Activity [10]: Dose-Dependent Effect; Activity [11]: Dose-Dependent Effect; Activity [12]: Dose-Dependent Effect; Activity [13]: Dose-Dependent Effect; IC50 at 4 days [14]: 9530 nM; selectivity ratio [15]: 93; selectivity ratio [16]: 0.8; Ratio IC50 [17]: 1.9; pIC50 [18]: 6.99; pIC50 [19]: 4.93; pIC50 [20]: 5.31
4 | COc1cc(C(=O)O)ccc1N1CN2[C@@H](CC3(C)CCCC3)[C@@]3(CNc4cc(Cl)ccc43)[C@@H](c3cccc(Cl)c3)[C@@H]2C1=O | 9.22 | 6.13 | 6.92 | 7.77 | 
5 | COc1cc(C(=O)O)ccc1N1CN2[C@@H](CC(C)(C)C)[C@@]3(CNc4cc(Cl)ccc43)[C@@H](c3cccc(Cl)c3Cl)[C@@H]2C1=O | 8.12 | 5.30 | 5.59 | 5.86 | 
6 | COc1cc(C(=O)O)ccc1N1CN2[C@@H](CC(C)(C)C)[C@@]3(CNc4cc(Cl)ccc43)[C@@H](c3cccc(F)c3)[C@@H]2C1=O | 8.92 | 5.40 | 6.86 | 7.40 | 
7 | COc1cc(C(=O)O)ccc1N1CN2[C@@H](CC3(C)CCCCC3)[C@@]3(CNc4cc(Cl)ccc43)[C@@H](c3cccc(Cl)c3)[C@@H]2C1=O | 8.57 | < 4.57 | 6.87 | 7.45 | 
8 | COc1cc(C(=O)O)ccc1N1CN2[C@@H](CC(C)(C)C)[C@@]3(CNc4cc(Cl)ccc43)[C@@H](c3ccccc3F)[C@@H]2C1=O | 7.83 | < 4.57 | 5.41 | 5.79 | 
9 | COc1cc(C(=O)O)ccc1N1CN2[C@@H](CC(C)(C)C)[C@@]3(CNc4ccc(Cl)cc43)[C@@H](c3ccc(Cl)cc3)[C@@H]2C1=O | < 4.57 | < 4.57 | 4.89 | 5.08 | 
10 | COc1cc(C(=O)O)ccc1N1CN2[C@@H](CC(C)(C)C)[C@@]3(CNc4cc(Cl)ccc43)[C@@H](c3cccc(Cl)c3F)[C@@H]2C1=O | 8.51 | 5.51 | 7.30 | 9.05 | 
11 | COc1cc(C(=O)O)ccc1N1CN2[C@@H](CC(C)(C)C)[C@@]3(CNc4ccc(Cl)cc43)[C@@H](c3cccc(Cl)c3Cl)[C@@H]2C1=O | 6.82 | < 4.57 | 5.01 | 5.12 | 
12 | COc1cc(C(=O)O)ccc1N1CN2[C@@H](CC(C)(C)C)[C@@]3(CNc4cc(Cl)ccc43)[C@@H](c3cccc(C(F)(F)F)c3)[C@@H]2C1=O | 7.30 | 5.24 | 5.16 | 5.20 | 
13 | COc1cc(C(=O)O)ccc1N1CN2[C@@H](CC(C)(C)C)[C@@]3(CNc4ccc(Cl)cc43)[C@@H](c3ccccc3Cl)[C@@H]2C1=O | 5.96 | < 4.57 | 4.89 | 5.14 | 
14 | COc1cc(C(=O)O)ccc1N1CN2[C@@H](CC(C)(C)C(C)C)[C@@]3(CNc4cc(Cl)ccc43)[C@@H](c3cccc(Cl)c3)[C@@H]2C1=O | 8.89 | 5.95 | 7.05 | 7.48 | 
15 | CCC(C)(CC)C[C@@H]1N2CN(c3ccc(C(=O)O)cc3OC)C(=O)[C@H]2[C@H](c2cccc(Cl)c2)[C@]12CNc1cc(Cl)ccc12 | 8.92 | 6.07 | 6.78 | 7.55 | 
16 | CC(C)(C)C[C@@H]1N[C@@H](C(=O)N[C@H]2CC[C@H](O)CC2)[C@H](c2cccc(Cl)c2F)[C@]12C(=O)Nc1cc(Cl)ccc12 [SAR-405838] |  | 4.43 | 6.64 | 6.94 | 
17 | CCN1[C@@H](CC(C)(C)C)[C@@]2(CNc3cc(Cl)ccc32)[C@@H](c2cccc(Cl)c2)[C@@H]1C(=O)Nc1ccc(C(=O)O)cc1OC |  |  | 7.87 | 9.70 | 
18 | COc1cc(C(=O)O)ccc1N1CN2[C@@H](CC(C)(C)C)[C@@]3(CNc4cc(Cl)ccc43)[C@@H](c3ccccc3Cl)[C@@H]2C1=O | 7.48 | < 4.57 | 5.04 | 5.26 | 
19 | COc1cc(NC(=O)[C@@H]2N[C@@H](CC(C)(C)C)[C@](C#N)(c3ccc(Cl)cc3F)[C@H]2c2cccc(Cl)c2F)ccc1C(=O)O |  | 5.77 | 6.98 | 7.61 | IC50 at 4 days [14]: 9080 nM; pIC50 [18]: 6.43; pIC50 [19]: 4.88; pIC50 [20]: 5.26
20 | COc1cc(C(=O)O)ccc1N1CN2[C@@H](CC3(C)CCC3)[C@@]3(CNc4cc(Cl)ccc43)[C@@H](c3cccc(Cl)c3)[C@@H]2C1=O | 9.00 | 5.75 | 6.22 | 6.42 | 
21 | COc1cc(C(=O)O)ccc1N1CN2[C@@H](CC(C)(C)C)[C@@]3(CNc4cc(Cl)cnc43)[C@@H](c3cccc(Cl)c3)[C@@H]2C1=O | 8.92 | 5.44 | 6.21 | 6.69 | 
22 | COc1cc(C(=O)O)ccc1N1CN2[C@@H](CC(C)(C)C)[C@@]3(CNc4cc(Cl)ccc43)[C@@H](c3ccc(Cl)cc3)[C@@H]2C1=O | 7.55 | < 4.57 | 5.59 | 5.66 | 
23 | COc1cc(C(=O)O)ccc1N1CN2[C@@H](CC(C)(C)C)[C@@]3(CNc4cc(Cl)ccc43)[C@@H](c3ccc(F)cc3)[C@@H]2C1=O | 8.02 | < 4.57 | 5.88 | 6.28 | 
24 | COc1cc(C(=O)O)ccc1N1CN2[C@@H](CC3(C)CCOCC3)[C@@]3(CNc4cc(Cl)ccc43)[C@@H](c3cccc(Cl)c3)[C@@H]2C1=O | 8.57 | 5.47 | 6.25 | 6.86 | 
25 | COc1cc(C(=O)O)ccc1N1CN2[C@@H](CC(C)(C)C)[C@@]3(CNc4cc(Cl)ccc43)[C@@H](c3cccc(F)c3F)[C@@H]2C1=O | 8.51 | < 4.57 | 6.55 | 7.25 | 
26 | COc1cccc([C@H]2[C@@H]3C(=O)N(c4ccc(C(=O)O)cc4OC)CN3[C@@H](CC(C)(C)C)[C@@]23CNc2cc(Cl)ccc23)c1 | 8.28 | < 4.57 | 5.85 | 6.03 | 
